From ChEMBL document CHEMBL3120136 (J Med Chem, 2014)
Values after ≈ are worked out from the molar mass of the structure shown.

Key:
Hepatitis C virus = assay: Antiviral activity against Hepatitis C virus infected in human HuH7 cells assessed as inhibition of HCV subgenomic replicon replication after 72 hrs by ELISA; assay type: functional, organism-based, Hepacivirus hominis, Huh-7; conditions: Hepatitis C virus, Huh-7, 72 h; read-out: EC50
[1] = Inhibition of Hepatitis C virus full-length NS3/4A protease assessed as quenched-fluorogenic RET-S1 substrate cleavage incubated for 10 mins prior to substrate addition by FRET analysis; set-up: species or system Hepacivirus hominis
[2] = (§1) Ratio of AUC (0 to 24 hrs) in liver to plasma in Sprague-Dawley rat at 30 mg/kg, po by HPLC-MS/MS analysis; assay type: ADME, organism-based; set-up: dose 30 mg/kg, route oral; conditions: Sprague-Dawley, liver and plasma, read-out: Ratio AUC
[3] = AUC (0 to 24 hrs) in Sprague-Dawley rat plasma at 30 mg/kg, po by HPLC-MS/MS analysis; assay type: ADME, organism-based; set-up: time < 24 hr, dose 30 mg/kg, route oral
[4] = AUC (0 to 24 hrs) in Sprague-Dawley rat liver at 30 mg/kg, po by HPLC-MS/MS analysis; assay type: ADME, organism-based; set-up: time < 24 hr, dose 30 mg/kg, route oral
[5] = Plasma clearance in rat assessed as extraction ratio; assay type: ADME, organism-based; conditions: read-out: ERH
[6] = Efflux ratio of permeability from basolateral to apical side over apical to basolateral side in human Caco2 cells; assay type: ADME, cell-based; conditions: Caco-2
[7] = Permeability from apical to basolateral side of human Caco2 cells; assay type: ADME, cell-based; conditions: Caco-2, read-out: permeability
[8] = Aqueous solubility of the compound at pH 6.5 by modified shake-flask method; assay type: physicochemical
[9] = Aqueous solubility of the compound at pH 7.4 by modified shake-flask method; assay type: physicochemical
[10] = Aqueous solubility of the compound at pH 1.2 by modified shake-flask method; assay type: physicochemical
[11] = Metabolic stability in dog hepatocytes assessed as extraction ratio at 1 uM; assay type: ADME, cell-based, Canis lupus familiaris, Hepatocyte; conditions: read-out: ERH
[12] = Metabolic stability in cynomolgus monkey hepatocytes assessed as extraction ratio at 1 uM; assay type: ADME, cell-based, Macaca fascicularis, Hepatocyte; conditions: read-out: ERH
[13] = Metabolic stability in human hepatocytes assessed as extraction ratio at 1 uM; assay type: ADME, cell-based, Hepatocyte; conditions: read-out: ERH
[14] = Metabolic stability in rat hepatocytes assessed as extraction ratio at 1 uM; assay type: ADME, cell-based, Hepatocyte; conditions: read-out: ERH
[15] = Lipophilicity, log D of the compound; assay type: physicochemical; conditions: octanol/water
Rattus norvegicus = assay: Volume of distribution at steady state in Sprague-Dawley rat at 1 mg/kg, iv by HPLC-MS/MS analysis; conditions: in vivo
Liver = assay: as §1; assay type: ADME, organism-based; set-up: dose 30 mg/kg, route oral; conditions: other tissue
[16] = Ratio of drug level in liver to plasma in Sprague-Dawley rat at 30 mg/kg, po by HPLC-MS/MS analysis; assay type: ADME, organism-based; set-up: dose 30 mg/kg, route oral; conditions: liver and plasma

EC50 (Hepatitis C virus) | IC50 [1] | Kp [2] | AUC(0-t) at 24 h [3] | AUC(0-t) at 24 h [4] | hepatic extraction ratio [5] | efflux ratio [6] | Papp A→B [7] | solubility thermodynamic [8] | solubility thermodynamic [9] | solubility thermodynamic [10] | hepatic extraction ratio at 1 µM [11] | hepatic extraction ratio at 1 µM [12] | hepatic extraction ratio at 1 µM [13] | hepatic extraction ratio at 1 µM [14] | logD [15] | Vdss (Rattus norvegicus) | Ratio AUC (Liver) | Kp [16] | Structure (SMILES)
2 nM | 1.2 nM | 1.2 | 32900 ng·h/mL | 40300 ng·h/mL | 0.06 | > 2 | < 2 ×10⁻⁶ cm/s | 702 µg/mL (≈ 983 µM) | > 1000 µg/mL | 0.5 µg/mL (≈ 0.7 µM) | 0.33 | 0.28 | 0.65 | 0.01 | 2.4 | 0.089 L/kg |  |  | CC(C)(C)OC(=O)N[C@H]1CCCCC/C=C\[C@@H]2C[C@@]2(C(=O)NS(=O)(=O)C2CC2)NC(=O)[C@@H]2C[C@@H](OC(=O)N3Cc4ccccc4C3)CN2C1=O
2.8 nM | 2.5 nM | 132 | 1030 ng·h/mL | 136000 ng·h/mL | > 1 | > 2 | < 2 ×10⁻⁶ cm/s | 165 µg/mL (≈ 230 µM) | > 1000 µg/mL | 0.5 µg/mL (≈ 0.697 µM) | 0.16 | 0.56 | 0.56 | 0.16 | 2.5 | 2.583 L/kg |  |  | CN(C)S(=O)(=O)NC(=O)[C@@]12C[C@H]1/C=C\CCCCC[C@H](NC(=O)OC(C)(C)C)C(=O)N1C[C@H](OC(=O)N3Cc4ccccc4C3)C[C@H]1C(=O)N2
17.5 nM | 2.2 nM |  | 60 ng·h/mL | 276000 ng·h/mL | > 1 | > 2 | < 2 ×10⁻⁶ cm/s | 812 µg/mL (≈ 1120 µM) | > 1000 µg/mL | 0.5 µg/mL (≈ 0.687 µM) | 0.36 | 0.53 | 0.49 | 0.05 | 2.2 | 5.982 L/kg | 4608 | > 1000 | CC(C)(C)OC(=O)N[C@H]1CCCCC/C=C\[C@@H]2C[C@@]2(C(=O)NS(=O)(=O)C2CC2)NC(=O)[C@@H]2C[C@@H](OC(=O)N3CCc4ccccc4C3)CN2C1=O
20 nM | 2.4 nM |  |  |  |  |  |  |  |  |  |  |  |  |  |  |  |  |  | CN(C)c1cccc2c1CCN(C(=O)O[C@@H]1C[C@H]3C(=O)N[C@]4(C(=O)NS(=O)(=O)C5CC5)C[C@H]4/C=C\CCCCC[C@H](NC(=O)OC(C)(C)C)C(=O)N3C1)C2
25000 nM | 483 nM |  |  |  |  |  |  |  |  |  |  |  |  |  |  |  |  |  | CC(C)(C)OC(=O)N[C@H]1CCCCC/C=C\[C@@H]2C[C@@]2(C(=O)O)NC(=O)[C@@H]2C[C@@H](OC(=O)N3Cc4cc(Cl)c(Cl)cc4C3)CN2C1=O
70 nM | 9.8 nM |  |  |  |  |  |  |  |  |  |  |  |  |  |  |  |  |  | CC(C)(C)OC(=O)N[C@H]1CCCCC/C=C\[C@@H]2C[C@@]2(C(=O)NS(=O)(=O)Nc2ccc(C(F)(F)F)cc2)NC(=O)[C@@H]2C[C@@H](OC(=O)N3Cc4ccccc4C3)CN2C1=O
30 nM | 2.2 nM |  |  |  |  |  |  |  |  |  |  |  |  |  |  |  |  |  | CC(C)(C)OC(=O)N[C@H]1CCCCC/C=C\[C@@H]2C[C@@]2(C(=O)NS(=O)(=O)Nc2ccccc2)NC(=O)[C@@H]2C[C@@H](OC(=O)N3Cc4ccccc4C3)CN2C1=O
54 nM | 1.5 nM |  |  |  |  |  |  |  |  |  |  |  |  |  |  |  |  |  | O=C(N[C@H]1CCCCC/C=C\[C@@H]2C[C@@]2(C(=O)NS(=O)(=O)C2CC2)NC(=O)[C@@H]2C[C@@H](OC(=O)N3Cc4ccccc4C3)CN2C1=O)OCCF
